Measurements reported in patent publication US4469705A, “Saturated leukotriene derivatives as antiallergens” (McNeilab, Inc., priority 1982, dated 1984).
pIC50: −log10 of the molar value.

What was measured:
[1] = test system: SRS-A induced contraction of guinea pig ileum; assay: Guinea pig ileum: inhibition of SRS-A induced contraction (isolated tissue); assay type: cell-based; conditions: Cavia porcellus, atropine and chlorpheniramine (1×10^-5 M) present, test drug 5 min before SRS-A, read-out: G.P. Ileum IC50
Experimental: The tissue is exposed to […] histamine at 1-3 minute intervals until a reproducible response is obtained. Atropine (1×10^-5 M) and chloropheniramine (1×10^-5 M) are added followed by 1-2 biological units of SRS-A. After washing the tissue, the response to BaCl2 (1×10^-3 M) was also noted.

[2] = test system: contraction of guinea pig parenchymal tissue by immunological release of SRS-A; assay: Guinea pig parenchymal strip: inhibition of contraction by immunological release of SRS-A (isolated tissue); assay type: cell-based; conditions: Cavia porcellus; egg albumin challenge of sensitized tissue; chlorpheniramine (10^-5 M), indomethacin (10^-4 M); test compound 30 min before challenge
Experimental: (b) Guinea Pig Parenchymal Strip
The guinea pigs were sacrificed and lungs removed. Strips of subpleural parenchyma were prepared from the left and right diaphragmatic lobes and suspended in a tissue bath under 1 gram of tension. After a one hour equilibration period, a dose response to histamine (10^-7 to 10^-4 M) induced contractions was performed to determine maximal contraction. The tissues were then washed and allowed to relax to baseline. Chlorpheniramine (10^-5 M), indomethacin (10^-4 M) and test compound were added 30 minutes prior to challenge with egg albumin. The response to antigen was measured in milligrams of tension.

Compound	pIC50 [1]	pIC50 [2]
CCCCCCCCCCC[C@@H](SCCC(=O)OC)[C@H](O)CCCCC(=O)OC (relative stereo) [Example 1, Threo Methyl 6-Hydroxy-7{[2-(methoxycarbonyl)ethyl]thio}octadecanoate]	6.00	< 4.00
CCCCCCCCCCC[C@@H](SCCC(=O)O)[C@H](O)CCCCC(=O)O (relative stereo) [Example 2, Threo 7-(2-Carboxyethyl)thio-6-hydroxyoctadecanoic Acid]	5.05	4.00
CCCCCCCCCCC[C@@H](SCCC(=O)OC)[C@@H](O)CCCCC(=O)OC (relative stereo) [Example 4, Erythro Methyl 6-Hydroxy-7-{[2-(methoxycarbonyl)ethyl]thio}octadecanoate]	–	5.96
CCCCCCCCCCC[C@@H](SCCC(=O)O)[C@@H](O)CCCCC(=O)O (relative stereo) [Example 5, Erythro 7-(2-Carboxyethyl)thio-6-hydroxyoctadecanoic Acid]	7.10	5.44
CCCCCCCCCCCC(SC[C@H](N)C(=O)OC)C(O)CCCCC(=O)OC (stereo partly drawn) [Example 3, Threo S-(5-Hydroxy-1-methoxycarbonyl-6-heptadecyl)-L-cysteine Methyl Ester]	4.85	< 4.00
